Test results reported in patent US20020187123A1, “Therapeutic compositions and methods for the inhibition of angiogenesis” (priority 2001, published 2002).

Columns and labels:
[1] = test system: bFGF-stimulated corneal angiogenesis; assay: Corneal angiogenesis assay; assay type: in vivo, mice; settings: delivered by intraperitoneal osmotic pump
Excerpt: The effect of endostatin on bFGF-stimulated corneal angiogenesis was examined in wild type and E-selectin deficient mice.

[2] = test system: VEGF-stimulated endothelial vessel formation by aortic endothelium; assay: Aortic ring explant assay of endothelial vessel morphogenesis; assay type: cell-based; settings: aortae of wild type mice
Excerpt: The results described above were extended using an aortic ring explant assay of endothelial vessel morphogenesis. […] The more rapid and extensive growth in E-selectin deficient aortae is therefore consistent with the hypothesis that E-selectin is required for endostatin activity.

tumor growth = settings: mouse model; cited from earlier work
[3] = test system: isolated, cultured human endothelial cells; assay: Endostatin responsiveness of isolated, cultured human endothelial cells; assay type: cell-based

With endostatin the “effect on FGF-stimulated corneal angiogenesis” value ([1]; E-selectin deficient mice) was “not in the E-selectin deficient mice”, the “effect on FGF-stimulated corneal angiogenesis” value ([1]; wild type mice) was “inhibited FGF-stimulated angiogenesis” and the “effect on vessel formation” value [2] was “vessel formation was inhibited”. For the same molecule, the “effect on tumor growth” value (tumor growth) was “dramatic reduction in tumor growth”.

For tumor necrosis factor-alpha, the “effect on endostatin responsiveness” value ([3]; isolated cultured human endothelial cells, even in the presence of E-selectin) was “appears to block and/or prevent endostatin responsiveness”.

B1: E-selectin (protein, UniProt P16581 22-610, looked up)
E-selectin: WSYNTSTEAMTYDEASAYCQQRYTHLVAIQNKEEIEYLNSILSYSPSYYWIGIRKVNNVWVWVGTQKPLTEEAKNWAPGEPNNRQKDEDCVEIYIKREKDVGMWNDERCSKKKLALCYTAACTNTSCSGHGECVETINNYTCKCDPGFSGLKCEQIVNCTALESPEHGSLVCSHPLGNFSYNSSCSISCDRGYLPSSMETMQCMSSGEWSAPIPACNVVECDAVTNPANGFVECFQNPGSFPWNTTCTFDCEEGFELMGAQSLQCTSSGNWDNEKPTCKAVTCRAVRQPQNGSVRCSHSPAGEFTFKSSCNFTCEEGFMLQGPAQVECTTQGQWTQQIPVCEAFQCTALSNPERGYMNCLPSASGSFRYGSSCEFSCEQGFVLKGSKRLQCGPTGEWDNEKPTCEAVRCDAVHQPPKGLVRCAHSPIGEFTYKSSCAFSCEEGFELHGSTQLECTSQGQWTEEVPSCQVVKCSSLAVPGKINMSCSGEPVFGTVCKFACPEGWTLNGSAARTCGATGHWSGLLPTCEAPTESNIPLVAGLSAAGLSLLTLAPFLLWLRKCLRKAKKFVPASSCQSLESDGSYQKPSYIL
notes: a cell surface glycoprotein expressed by the endothelium
With B1 the “effect on endostatin responsiveness” value ([3]; isolated, cultured human endothelial cells) was “can be sufficient to confer endostatin responsiveness”.
